# Reference: patent US7070813B2, “Preventative and treatment effects of morinda citrifolia as a colon cancer cell growth inhibitor” (priority 2001, dated 2006)
# Tested on: human colon tumor cell line DLD-1
# Test: cells
# Format: cell-based
# Details: for Percent Growth (Mean ± SEM, n = 2): 72 h exposure
# Procedure: A colon tumor assay was used to detect changes in cell proliferation based on the ability of viable cells to cause alamarBlue to change from its oxidized state (non-fluorescent, blue) to a reduced (fluorescent, red) form. With the results obtained from the alamarBlue reaction, cell proliferation can be quantified and metabolic activity of viable cells can be examined. MDA-1 (a processed Morinda citrifolia product) was tested for its effect upon the proliferation of human colon tumor cell line (or DLD-1), and at five final assay concentrations from 10% to […] through 2-fold serial dilutions.
# The MDA-1 test compound, or Morinda citrifolia fruit juice, was used for in vitro anti-tumor studies. The test compound was in liquid form and diluted with phosphate-buffered saline to obtain initial working solutions. […]
# The human colon tumor cell line of DLD-1 was obtained from American Type Culture Collection (ATCC CCL-221). The culture was used with RPMI 1640, 90%; Fetal Bovine Serum, 10% and supplemented with 1% Antibiotic-Antimycotic and the cells were incubated in an atmosphere containing 5% CO2 at 37 degrees Celsius.
# In the evaluation of anti-proliferation for test substances, […].
# Mean Ftime0=The average of two measured fluorescent intensities of reduced alamarBlue at the time just before exposure of cells to the test substance.
# Mean Ftest=The average of two measured fluorescent intensities of alamarBlue after seventy-two hour exposure of cells to the test substance.
# Mean Fctrl=The average of two measured fluorescent intensities of alamarBlue after seventy-two hour incubation without the test substance.
# Mean Fblank=The average of two measured fluorescent intensities of alamarBlue in medium without cells after seventy-two hour incubation.
# A decrease of fifty percent or more (≧50%) in fluorescent intensity relative to vehicle-treated control indicated significant cell growth inhibition, cytostatic or cytotoxic activity, and a semi-quantitative IC50, TGI and LC50 were then determined by nonlinear regression using GraphPad Prism (GraphPad Software, USA).
# TGI (Total Growth Inhibition): Test compound concentration where the number or mass of treated cells at the end of experiment was equal to that at time0.
# A semi-quantitative determination of IC50, TGI and LC50 was carried out by nonlinear regression analysis using GraphPad Prism (GraphPad Software, USA).
smiles,measurement,setting,value
CO[C@@]12[C@H](COC(N)=O)C3=C(C(=O)C(C)=C(N)C3=O)N1C[C@@H]1N[C@@H]12 [Mitomycin],activity of standard reference agent (growth inhibition),"DLD-1, at <10 μM",Significant activity
same,"Percent Growth (Mean ± SEM, n = 2)","DLD-1, concentration 0.001 μM",95 ± 5
same,"Percent Growth (Mean ± SEM, n = 2)","DLD-1, concentration 0.01 μM",103 ± 6
same,"Percent Growth (Mean ± SEM, n = 2)","DLD-1, concentration 0.1 μM",60 ± 7
same,"Percent Growth (Mean ± SEM, n = 2)","DLD-1, concentration 1 μM",35 ± 4
same,"Percent Growth (Mean ± SEM, n = 2)","DLD-1, concentration 10 μM",−50 ± 8
same,Estimated TGI (Total Growth Inhibition),"DLD-1, semi-quantitative, nonlinear regression",2.2 µM
same,IC50,"Homo sapiens, DLD-1, semi-quantitative, nonlinear regression, read-out: Estimated IC50 (50% Inhibition Concentration)",380 nM
